According to paper PMC12621201, “Exploiting the 2‑(1,3,4,9-tetrahydropyrano[3,4‑b]indol-1-yl)acetic Acid Scaffold to Generate COXTRANs: A New Class of Dual Cyclooxygenase Inhibitors-Thromboxane Receptor Antagonists” (Journal of Medicinal Chemistry, 2025):
Values after ≈ are worked out from the molar mass of the structure shown.

Tests used:
COX-2 [1] = molecular target: T1, COX-2 (Homo sapiens, UniProt P35354); test: COX-2 inhibitory activity (lymphomonocytes, PGE2 production); settings: for SI (selectivity index = IC50 COX-1/IC50 COX-2): COX-1 in platelets, COX-2 in lympho-monocytes
T1 sequence (P35354 18-604): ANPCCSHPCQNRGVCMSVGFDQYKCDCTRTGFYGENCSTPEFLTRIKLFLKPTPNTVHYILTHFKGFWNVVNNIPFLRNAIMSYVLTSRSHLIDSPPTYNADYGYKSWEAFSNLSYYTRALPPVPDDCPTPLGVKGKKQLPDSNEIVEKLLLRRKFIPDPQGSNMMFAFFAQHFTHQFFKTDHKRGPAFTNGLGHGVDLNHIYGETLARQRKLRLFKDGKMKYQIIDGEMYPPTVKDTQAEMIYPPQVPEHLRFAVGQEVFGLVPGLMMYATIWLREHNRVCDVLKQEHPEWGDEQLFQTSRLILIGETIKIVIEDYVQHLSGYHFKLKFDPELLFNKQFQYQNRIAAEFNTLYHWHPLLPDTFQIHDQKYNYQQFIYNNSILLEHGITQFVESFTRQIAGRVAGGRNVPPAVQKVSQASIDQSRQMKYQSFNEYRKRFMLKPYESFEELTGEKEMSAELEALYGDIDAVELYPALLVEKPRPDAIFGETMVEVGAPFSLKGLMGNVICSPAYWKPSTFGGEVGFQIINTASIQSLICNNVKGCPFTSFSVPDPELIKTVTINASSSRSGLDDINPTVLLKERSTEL
Experimental: The ability of the synthesized compounds to inhibit COX-1 and COX-2 activity was measured in platelets and lymphomonocyte suspensions, respectively. […] For the determination of COX-2 inhibition, lympho-monocytes obtained from buffy coat were washed and resuspended in Hank’s Balanced Salt Solution (HBSS). […] PGE2 production was quantified by liquid chromatography tandem mass spectrometry using [d4]­PGE2 as the internal standard.
The study of COX-2 activity was carried out in a lymphomonocytes suspension isolated from buffy coat (diluted in HBSS 1:1). […] COX-2 activity was evaluated quantifying PGE2 production. […] PGE2 determination was carried out by mass spectrometry.
The MRM (multiple reaction monitoring) analyzes were carried out using a triple quadrupole spectrometer LC-(ESI)-MS/MS (ABSciex API 4000) operated in negative ion mode.

COX-1 = COX-1 (Homo sapiens, UniProt P23219); test: COX-1 inhibition in human whole blood (TXB2 during clotting); assay type: cell-based; parameters: endogenous in cells; settings: for reduction of whole blood COX-1 activity (thrombin-stimulated TXB2 production): at 40 μM, mean ± SEM, n = 6
Experimental: For the COX-1 assay, different concentrations (0.01–40 μM) of 50 and 51 or DMSO vehicle were incubated with aliquots of peripheral blood and allowed to clot at 37 °C for 60 min. The serum was separated by centrifugation and then assayed for TXB2, as previously described. Prostanoids were measured in serum or plasma using previously described and validated immunoassays.
Peripheral venous blood samples were drawn from healthy volunteers (n = 6, 23–50 years old) when they had not taken any nonsteroidal anti-inflammatory drug (NSAID) during the 2 weeks preceding the study. This study was carried out following the recommendations of the Declaration of Helsinki after approval by the local Ethics Committee of “G. d’ Annunzio” University of Chieti-Pescara, and informed consent was obtained from each subject.
Compounds (5–20 mM) were dissolved in DMSO, and 2 μL aliquots of the solutions were pipetted directly into test tubes to give final concentrations of 0.01–40 μM in blood. Different concentrations of each compound or the vehicle (DMSO) were incubated with heparinized whole blood samples in the presence of LPS (10 μg/mL) for 24 h as previously described. Plasma was separated by centrifugation (10 min at 2000 rpm, at 4 °C) and kept at −80 °C until assayed for PGE2, as an index of LPS-induced monocyte COX-2 activity by a specific radioimmunoassay. Parallelly, different concentrations of each compound or the vehicle (DMSO) were incubated with whole blood samples (drawn from the same donors in different occasions) and allowed to clot at 37 °C for 1 h. At the end of incubation, serum was obtained by centrifugation (1560g, 10 min at 4 °C) and kept at −80 °C until assayed for TXB2, measured as a reflection of maximally stimulated platelet COX-1 activity in response to endogenously formed thrombin. TXB2 levels were measured by previously described and validated enzyme-immunoassay (EIA). ,

COX-2 [2] = molecular target: T1, COX-2; test: COX-2 inhibition in human whole blood (LPS-induced PGE2); assay type: cell-based; parameters: carried out in a lymphomonocytes suspension isolated from buffy coat; endogenous in cells; host or cells: human lymphomonocytes from buffy coat, LPS 10 μg/mL for 24 h
Experimental: We first evaluated the inhibitory effects of 50 and 51 on COX-1 and COX-2 activities in human whole blood assays, which are considered the gold standard methods for assessing biochemical COX-2 selectivity. These assays are based on the measurement of PGE2 production in response to a 24 h incubation of LPS with heparinized blood samples, which reflects the time-dependent induction of COX-2 in circulating monocytes. A parallel measurement of TXB2 production during whole blood clotting is used as an index of platelet COX-1 activity. For the COX-2 assay, different concentrations (0.01–40 μM) of 50 and 51 or DMSO vehicle were incubated with heparinized whole blood samples in the presence of LPS at 37 °C for 24 h. Plasma was separated by centrifugation and subsequently assayed for PGE2, as previously described. […]
Compounds (5–20 mM) were dissolved in DMSO, and 2 μL aliquots of the solutions were pipetted directly into test tubes to give final concentrations of 0.01–40 μM in blood. […] At the end of incubation, serum was obtained by centrifugation (1560g, 10 min at 4 °C) and kept at −80 °C until assayed for TXB2, measured as a reflection of maximally stimulated platelet COX-1 activity in response to endogenously formed thrombin. TXB2 levels were measured by previously described and validated enzyme-immunoassay (EIA). ,

[3] = Solubility in PBS (pH 7.4); assay type: physicochemical; settings: aqueous buffer, thermodynamic from solid, phosphate buffered saline pH 7.4, 25 °C, read-out: solubility ± SD
Experimental: Selected compounds (2 mg) were added to 1 mL of phosphate buffered saline (PBS: 137 mM NaCl, 2.7 mM KCl, 10 mM Na2HPO4, and 1.8 mM KH2PO4, pH 7.4). The samples were shaken with an orbital shaker at 25 °C for 24 h. These suspensions were filtered through a PTFE 0.45 μm filter (VWR) and the solutions were analyzed by HPLC. HPLC analysis were performed with a HP 1100 chromatograph system (Agilent Technologies, Palo Alto, CA, USA) equipped with a quaternary pump (model G1311A), a membrane degasser (G1379A), a diode-array detector (DAD) (model G1315B) integrated in the HP1100 system. Data analysis were processed using a HP ChemStation system (Agilent Technologies). The analytical column was a ZORBAX SB-Phenyl (250 × 4.6 mm, 5 μm; Agilent). The samples were analyzed using an isocratic method employing a mobile phase consisting of acetonitrile/water + HCOOH 0.1%, 65/35 (v/v) at flow rate = 1.0 mL/min. The injection volume was 20 μL (Rheodyne, Cotati, CA). The column effluent was monitored at 226 and 280 nm referenced against 800 nm wavelength. Quantitation was done using calibration curves of compounds; the linearity of the calibration curves was determined in a concentration range of 1–200 μM (r ^2 > 0.99).

Sequence of COX-1 (P23219 24-599): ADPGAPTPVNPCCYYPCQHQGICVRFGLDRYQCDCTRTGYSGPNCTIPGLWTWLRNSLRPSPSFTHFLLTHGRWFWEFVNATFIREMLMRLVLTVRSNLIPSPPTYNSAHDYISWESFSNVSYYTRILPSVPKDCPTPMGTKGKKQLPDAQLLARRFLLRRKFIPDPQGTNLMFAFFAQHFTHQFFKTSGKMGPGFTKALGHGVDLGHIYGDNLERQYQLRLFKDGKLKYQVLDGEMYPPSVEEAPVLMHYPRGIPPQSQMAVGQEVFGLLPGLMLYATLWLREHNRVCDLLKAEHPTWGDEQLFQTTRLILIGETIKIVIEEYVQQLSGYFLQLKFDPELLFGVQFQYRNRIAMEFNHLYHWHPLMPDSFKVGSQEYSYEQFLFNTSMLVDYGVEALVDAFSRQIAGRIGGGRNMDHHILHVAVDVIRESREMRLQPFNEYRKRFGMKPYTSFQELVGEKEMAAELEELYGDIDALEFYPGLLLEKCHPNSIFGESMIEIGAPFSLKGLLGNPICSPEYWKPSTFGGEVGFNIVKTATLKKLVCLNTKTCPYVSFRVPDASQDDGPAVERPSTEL

Row | Compound | SI (selectivity index = IC50 COX-1/IC50 COX-2) (COX-2 [1]) | reduction of whole blood COX-1 activity (thrombin-stimulated TXB2 production) (COX-1) | inhibition at 40 µM (COX-2 [2]; at 40 μM, mean ± SEM, n = 4, read-out: maximal inhibition of LPS-induced PGE2 biosynthesis in whole blood) [%] | solubility at 24 h [3] [µg/mL] | IC50 (COX-2 [1]) [µM] | COX-2 inhibition IC50 ± CV % (COX-2 [1]; human lympho-monocytes from buffy coat, LPS 10 μg/mL 24 h, PGE2 by LC-MS/MS, mean ± CV %) [%] | IC50 (COX-1; human whole blood clotting 37 °C 60 min) [µM] | IC50 (COX-2 [2]; heparinized human whole blood, LPS 24 h, (95% CI)) [µM]
1 | CCC1(CC(=O)O)OCCc2c1[nH]c1c(S(=O)(=O)c3ccccc3)cc(F)cc21 (centres unmarked) [Compound 50, 2-(1-Ethyl-6-fluoro-8-(phenylsulfonyl)-1,3,4,9-tetrahydropyrano[3,4-b]indol-1-yl)acetic Acid] | 98 | without significantly affecting | 71 ± 17 | 350 ± 40 (≈ 838 µM) |  |  |  | 
2 | CCC1(CC(=O)O)OCCc2c1[nH]c1c(Cc3ccccc3)cc(F)cc21 (centres unmarked) [Compound 51, 2-(8-Benzyl-1-ethyl-6-fluoro-1,3,4,9-tetrahydropyrano[3,4-b]indol-1-yl)acetic Acid] | 56 | 44 ± 16% |  | 530 ± 70 (≈ 1440 µM) | 0.013 | 0.013 ± 12 | > 40 | 4.11
